The source of these data is US9993002B2, “1,2,3-thiadiazol-5yl-urea derivatives, use thereof for regulating plant senescence and preparations containing these derivatives” (USTAV EXPERIMENTALNI BOTANIKY AV CR, V.V.I., priority 2014, dated 2018).

Where two headings read alike, the source gives them in different places. A value given as a limit tells only on which side of the number the result lay.

In one data set the test system is wheat leaves. The experiment in a line: Ethylene production (defoliating activity) assay. Details: species or system Triticum aestivum. To be noted: 10 μM; for Ethylene produced: 96 h in the dark at 25° C., control 270 (±15). The procedure: We investigated the effect of the compounds of the invention on ethylene production in wheat leaves. The leaves were obtained as described in Example 8, placed in 5 mL glass vials and immersed at 10 μM solutions of tested compounds of the invention or TDZ. Distilled water was used as a control treatment. After 96 h incubation in the dark at 25° C., 1 mL of air was taken from the vials and content of ethylene in it was determined using gas chromatography with the flame ionization detector (GC-FID) method described by Fišerová et al. (Fišerová H, Kula E, Klemš M, Reinöhl V (2001) Phytohormones as indicators of the degree of damage in birch (Betula pendula). Biológia 56: 405-409).

Data set [1] relates to spring barley (Hordeum vulgare), malting variety Bojos. Put plainly: Field experiment, spring barley, pre-soaked seeds. The class given is in vivo. To be noted: seeds pre-soaked in 50 μM solution. The procedure:
Seeds of spring barley (Hordeum vulgare), malting variety Bojos were pre-soaked in 50 μM solution of compound 6 or 65 and sown as described in example 15. For each variant at least 50 plants were used to obtain morphology parameters. Statistical evaluation was executed in stat. program PAST v. 2.17c.

In data set [2] the test system is detached leaf segments of Triticum aestivum cv. Hereward. Put plainly: Senescence bioassay on wheat leaf segments in dark/light conditions. The settings on record: foliar, 168 h, read-out: Senescence bioassay (IC50). The procedure:
(§1) Seeds of winter wheat, Triticum aestivum cv. Hereward, were washed under running water for 24 hours and then sown on perlite soaked with Hogland's solution. They were placed in the growth chamber at 25° C. with a 16/8 h light period at 50 μmol·m^−2·s^−1. After 7 days, the first leaf was fully developed and the second leaf had started to grow. A tip section of the first leaf, approximately 4 cm long, was removed from 4 seedlings and trimmed slightly to a combined weight of 100 mg. The basal ends of the four leaf tips were placed into the 96-wells plate containing 150 μL of the tested derivative solution each. The entire plate was inserted into a plastic box lined with paper tissues soaked in distilled water to prevent leaf sections from drying out. After 96 h incubation in the dark at 25° C., the leaves were removed and chlorophyll extracted by heating at 80° C. for 10 min in 5 mL of 80% ethanol (v/v). The sample volume was then restored to 5 mL by the addition of 80% ethanol (v/v). The absorbance of the extract was recorded at 665 nm. In addition, chlorophyll extracts from fresh leaves and leaf tips incubated in deionised water were measured. The results are means of five replicates and the entire test was repeated at least twice. […] The compounds to be tested were dissolved in dimethylsulfoxide (DMSO) and the solution brought up to 10^−3 M with distilled water. […] The IC50 values were determined for standard (BAP) and novel tested compounds.
The ability of the novel compounds to retard chlorophyll degradation in detached wheat leaves was tested also in the light conditions. The experiment was performed as described in Example 7 with modifications as follows—the incubation of the leaves with the compounds was done in the dark/light conditions 8/16 (light—100 μmol·m^−2·s^−1) at 22° C. for 7 days. […] The newly prepared substituted 1,2,3-thiadiazol-5-yl urea derivatives of the invention are much stronger anti-senescent compounds in comparison to the BAP in retarding senescence under optimal (dark/light) conditions.

Data set [3] concerns detached leaves of Triticum aestivum cv. Hereward. The experiment in a line: Membrane lipid peroxidation (MDA, TBA method) in detached wheat leaves in the dark. The settings on record: for MDA: four days in the dark. The procedure: A typical symptom associated with senescence as a direct consequence of increased reactive oxygen species is membrane lipid peroxidation which produces malondialdehyde (MDA). Therefore the levels of MDA, a decomposition product of lipid peroxidation, were measured in detached wheat leaves that were exposed to the prepared novel derivatives or BAP for four days in the dark as described in Example 7. MDA levels were measured using a thiobarbituric acid (TBA) method. In detail, 100 mg of fresh plant material was homogenized by high speed shaking in a ball mill (MM301, Retsch, Germany) with 1 mL of 70% methanol. The crude extract was centrifuged at 10,000×g for 5 min, and 100 μL aliquot of supernatant was vortexed with 100 μL of 0.5% (w/v) TBA containing 0.1% (w/v) trichloroacetic acid, and the resulting solution was then incubated for 30 min at 95° C. The samples were quickly cooled on ice and centrifuged for 5 min at 1000 g. The absorbance of supernatant was measured at 532 nm with background subtraction at 600 nm and the amount of MDA-TBA complex was calculated from the coefficient of absorbance 155 mM^−1 cm^−1.

In data set [4] the test system is detached leaf segments of Triticum aestivum cv. Hereward. The experiment in a line: Senescence bioassay on wheat leaf segments in dark conditions. To be noted: Triticum aestivum, foliar, 96 h, read-out: Senescence bioassay (IC50). The procedure:
as §1

The nature of data set [5]: Toxicity towards human skin fibroblasts (Calcein AM assay). The class given is cell-based. The procedure: Cytotoxicity of the compounds to human skin fibroblasts (BJ cell line) was determined in a standard Calceinovém AM test. Cells were maintained in plastic tissue culture flasks and grown in Dulbecco's modified Eagle's medium for cell culture (DMEM) at 37° C. in 5% CO2 and 100% humidity. Cells were placed into 96-well microtiter plates (Nunc, Denmark) and after 12 hours pre-incubation, the tested compound was added to a final concentration ranging from […]. Cells were incubated for 72 hours. At the end of incubation period Calcein AM was added in PBS to a final concentration of […]. After 1 hour of incubation fluorescence was measured at 485/538 nm (ex/em wavelength) using Fluoroskan Ascent (Labsystems, Finland). IC50 values (the concentration causing reduction of calcein AM conversion to 50%) were calculated from the curves obtained. All experiments were repeated four times with a maximum deviation of 15%. Due to the limited solubility of substances in water, all the tested compounds were dissolved in DMSO and diluted with water to a final concentration.

In data set [6] the test system is Arabidopsis thaliana (wild-type Col-0). Put plainly: Root growth and lateral root formation of Arabidopsis. The class given is in vivo. To be noted: 10 nM, two weeks after transfer. The protocol: To investigate in vivo effect of the new derivatives on the root growth and development, seeds of Arabidopsis thaliana (wild-type Col-0) were surface sterilized and sown on vertical plates on half-strength Murashige-Skoog medium (supplied with 0.1% sucrose and 6 g/L phytagel) containing 10 nM BAP or 10 nM 1,2,3-thiadiazol-5-yl-urea derivative, or 0.01% DMSO (solvent control). After vernalization (4 days in the dark, 4° C.) plates were transferred into the growth chamber (22° C., 16/8 light/dark). Two weeks after transfer, seedlings were photographed and root elongation and lateral root formation was scored using Scion image software (Scion Corp., Frederick, Md., USA). At least 40 plants were measured for each treatment.

Setting [7] is: dark/light 8/16, 22° C., 7 days.
The mark [8] stands for this setting: dark, 25° C., chlorophyll absorbance 665 nm.

What is called IC50 is the concentration that inhibits the measured activity by half. For the compound `COCCNC(=O)Nc1cnns1` [Compound 6, 1-(2-methoxy-ethyl)-3-[1,2,3]thiadiazol-5-yl-urea], the Ethylene produced in the data set with wheat leaves was 275 (±14) nL/g FW. The “grain yield compared to untreated control” value in data set [1] is recorded as 107.3%. Also, the IC50 in data set [2] (setting [7]) was determined as 0.03 µM; in data set [4] (setting [8]), 0.95 µM. Moreover, in data set [3] (compared to untreated control), the “level of membrane lipid peroxidation during dark senescence reduced to” value came to 44.6%. The MDA in data set [3] is reported as 9.6 (±0.7) nmol/g FW. Also, the CC50 at 72 h in data set [5] is over 100 µM. Moreover, the Lateral root number in data set [6] is given as 17 (±9). The Primary root lenght in data set [6] is recorded as 48 (±15) mm.
For `O=C(NCCCl)Nc1cnns1` [Compound 65, 1-(2-Chloro-ethyl)-3-[1,2,3]thiadiazol-5-yl-urea], the Ethylene produced in the data set on wheat leaves is given as 335 (±25) nL/g FW. In addition, the “grain yield compared to untreated control” value in data set [1] was found to be 109.0%. The concentration for half-maximal inhibition (IC50) in data set [2] stood at 0.7 µM; in data set [4], 14 µM. Also, in data set [3], the MDA is given as 16.4 (±0.5) nmol/g FW. The CC50 at 72 h in data set [5] (BJ cell line, 72 hours, read-out: not toxic up to the highest tested concentration (Calcein AM IC50)) is over 100 µM. For the same compound, the Lateral root number in data set [6] is listed as 12 (±8). Also, the Primary root lenght in data set [6] is given as 36 (±8) mm.
For the compound `O=C(NCc1ccco1)Nc1cnns1` [Compound 84, N-furfuryl-N′-1,2,3-thiadiazol-5-yl-urea], the “elevation of ethylene production compared to untreated control” value in the data set on wheat leaves (96 h) amounted to 25%. In addition, the Ethylene produced in the data set on wheat leaves is reported as 337 (±28) nL/g FW. In addition, the IC50 in data set [2] (setting [7]) is 0.03 µM. Besides, in data set [3], the MDA is reported as 12.7 (±1.1) nmol/g FW. Further, in data set [4] (setting [8]), the IC50 amounted to 1.2 µM. For the same compound, the CC50 at 72 h in data set [5] was over 100 µM. In addition, in data set [6], the Lateral root number is 13 (±6) and the Primary root lenght is listed as 30 (±6) mm.
